According to the NIST ThermoML archive (doi:10.1016/j.jct.2019.01.022):

Key:
[1] = for vapor or sublimation pressure: Transpiration method; for mass density: 293 K, 101.33 kPa, Pycnometric method; for Normal melting temperature: DTA
[2] = Molar enthalpy of transition or fusion; conditions: DSC

NC(=O)Nc1ccccc1 [N-phenylurea]
[1], Crystal
Conditions | vapor or sublimation pressure [kPa]
386 K | 0.00061
391.7 K | 0.00103
396.2 K | 0.00154
399.5 K | 0.00209
402.4 K | 0.00275
406.2 K | 0.00394
408.3 K | 0.0047
411.5 K | 0.00607
413.6 K | 0.00714

CC(C)(C)NC(=O)Nc1ccccc1 [1-tert-butyl-3-phenylurea]
Conditions | Molar enthalpy of transition or fusion, Crystal 1 [kcal/mol] | Molar enthalpy of transition or fusion, Crystal 2 [kcal/mol] | Normal melting temperature, Crystal 1 [°C] | Triple point temperature, Crystal 2, DSC [K] | mass density, Crystal 2 [kg/m3]
[1] | – | – | 168 | 432 | 1062
[2] | 5.9 | 1.86 | – | – | –

[1], Crystal 2
Conditions | vapor or sublimation pressure [kPa]
385.9 K | 0.00162
390 K | 0.00233
392.4 K | 0.00294
396.3 K | 0.00405
400.2 K | 0.00579
403.3 K | 0.00737
406.2 K | 0.00973
410.5 K | 0.01397
416.2 K | 0.02115
420.6 K | 0.03129
424 K | 0.03902
426.6 K | 0.0483
428.8 K | 0.05831
430.5 K | 0.066

CC(C)NC(=O)Nc1ccccc1 [1-isopropyl-3-phenylurea]
Crystal
Conditions | Molar enthalpy of transition or fusion [kcal/mol] | Normal melting temperature [°C] | mass density [kg/m3]
[1] | – | 156.2 | 1050
[2] | 5.35 | – | –

[1], Crystal
Conditions | vapor or sublimation pressure [kPa]
393.3 K | 0.00201
396.2 K | 0.00261
400.3 K | 0.00373
403.2 K | 0.00478
406.5 K | 0.00631
409.6 K | 0.00835
411.7 K | 0.00986
413.7 K | 0.01159
416.5 K | 0.01436
419.6 K | 0.01814
421.5 K | 0.02123
423.8 K | 0.02493
